Among the test systems are BT-549 breast; DU-145 prostate; HS 578T breast; MCF7 breast; T-47D breast; DLD-1 colon; DMS 114 small cell lung; HOP-18 NSCLC; KM20L2 colon; XF 498 CNS; SNB-78 CNS.
What all share (assay): NCI-60 cell line screen, 48 h

Structures are written as SMILES.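 These data come from cells grown in 96-well plates and exposed to compound for 48 hours at five concentrations. GI50 = concentration required for 50% inhibition of growth. Definition used: TGI = concentration required for complete inhibition of growth.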

Consider `COc1ccc2c(c1)OC(N(C(C)=O)C(C)=O)=C(C#N)C2c1ccc(F)cc1` (configuration not stated), for which the GI50 in the assay on BT-549 breast was 2.22 µM; in the assay with DU-145 prostate, 2.85 µM; in the assay with HS 578T breast it was 5.19 µM; in the assay with MCF7 breast it was 0.593 µM; in the assay on T-47D breast, 4.98 µM. The TGI in the assay with BT-549 breast was 40.2 µM; in the assay on DU-145 prostate, greater than 100 µM; with HS 578T breast, greater than 100 µM; in the assay on MCF7 breast, greater than 100 µM; with T-47D breast, greater than 100 µM.

For `CN(C)C(=S)N=Nc1c(O)[nH]c2ccccc12`, the GI50 in the assay on BT-549 breast was 0.763 µM; with DU-145 prostate, 0.955 µM; in the assay with HS 578T breast, 2.95 µM; with MCF7 breast it was 0.552 µM; in the assay on T-47D breast, 0.404 µM. For the same compound, the TGI is 20.8 µM in the assay on BT-549 breast; 11.4 µM with DU-145 prostate; 67.6 µM in the assay on HS 578T breast; 13.3 µM with MCF7 breast; 10.2 µM in the assay with T-47D breast.

With `CC/C=C\C/C=C\C/C=C\CCCCCCCC(=O)OCC`, the TGI in the assay on DLD-1 colon, with DMS 114 small cell lung, in the assay with HOP-18 NSCLC, with KM20L2 colon and in the assay on XF 498 CNS was greater than 100 µM throughout.

Consider `CC(CNC(Cc1ccccc1)c1ccccc1)NC(Cc1ccccc1)c1ccccc1` (configuration not stated), for which the GI50 in the assay with BT-549 breast was 2.01 µM; in the assay with DU-145 prostate, 3.95 µM; in the assay on HS 578T breast, 2.64 µM; in the assay on MCF7 breast, 2.08 µM; with T-47D breast it was 1.96 µM. Moreover, the TGI in the assay with BT-549 breast was 5.16 µM; with DU-145 prostate, 14.7 µM; with HS 578T breast, 8.27 µM; with MCF7 breast, 5.16 µM; in the assay on T-47D breast, 4.95 µM.

Regarding `Clc1nc(Cl)c2c(ncn2C/C=C\Cn2cnc3c(Cl)nc(Cl)nc32)n1`, the GI50 in the assay on BT-549 breast was 1.61 µM; with DU-145 prostate, 1.53 µM; in the assay with HS 578T breast it was 1.44 µM; with MCF7 breast it was 1.45 µM; with T-47D breast, 1.32 µM. For the same compound, the TGI with BT-549 breast is 2.97 µM; in the assay on DU-145 prostate, 2.86 µM; with HS 578T breast it was 5.36 µM; in the assay with MCF7 breast, 3.17 µM; in the assay with T-47D breast it was 3.06 µM.

As for `CC(C)CC1=[N+]=C(NC#N)N=C(CCC(=O)Nc2ccccc2[N+](=O)[O-])C1`, the TGI in the assay with DLD-1 colon, with DMS 114 small cell lung, in the assay on HOP-18 NSCLC, in the assay on KM20L2 colon and in the assay with XF 498 CNS was greater than 100 µM throughout.

With `O=C1C2=C(c3ccccc31)C(c1ccccc1)NC(=S)N2` (configuration not stated), the TGI with DLD-1 colon, in the assay on DMS 114 small cell lung, in the assay on KM20L2 colon and in the assay with XF 498 CNS was greater than 100 µM in each case.

For `COc1cc(Nc2nc(N[C@H]3CCCC[C@@H]3N)nc3cc[nH]c(=O)c23)cc(OC)c1`, the GI50 was 1.57 µM in the assay on BT-549 breast; 0.74 µM in the assay with DU-145 prostate; 1.14 µM in the assay on HS 578T breast; 1.37 µM with MCF7 breast; 12.8 µM in the assay with T-47D breast. Further, the TGI in the assay with BT-549 breast stood at 5.03 µM; in the assay with DU-145 prostate it was 15.3 µM; in the assay on HS 578T breast, 15.2 µM; with MCF7 breast, 8.44 µM; in the assay on T-47D breast, 30.2 µM.

Consider `CC(C)(C)c1ccc(S(=O)(=O)N[C@H]2CC[C@H]3[C@@H]4CCc5cc(OS(=O)(=O)O)ccc5[C@H]4CC[C@]23C)cc1`, for which the GI50 was 2.1 µM in the assay on BT-549 breast; 5.72 µM with DU-145 prostate; 2.69 µM with HS 578T breast; 2.38 µM with MCF7 breast; 2.82 µM in the assay on T-47D breast. The TGI with BT-549 breast is 4.2 µM; in the assay with DU-145 prostate, 18 µM; with HS 578T breast, 7.27 µM; in the assay with MCF7 breast, 5.9 µM; in the assay with T-47D breast it was 9.96 µM.

With `CC(=O)c1cc([N+](=O)[O-])ccc1OCC(=O)O`, the TGI in the assay on DLD-1 colon, with DMS 114 small cell lung, with KM20L2 colon and in the assay on SNB-78 CNS was greater than 100 µM in each case.

Turning to `OCCCCCCOc1ccc(-c2cc(-c3ccccn3)nc(-c3ccccn3)c2)cc1`, the TGI with BT-549 breast came to 9.21 µM; in the assay with DLD-1 colon, 2.99 µM; in the assay on DMS 114 small cell lung, 1.48 µM; in the assay on DU-145 prostate it was 7.83 µM; with HOP-18 NSCLC, 3.99 µM; with HS 578T breast it was 4.61 µM. Moreover, the TGI was found to be 10.9 µM in the assay with SNB-78 CNS, 5.74 µM with T-47D breast and 5.32 µM in the assay on XF 498 CNS.

With `Cn1ccnc1C(=O)/C=C/c1ccc(CC(=O)Nc2ccccc2)cc1`, the GI50 is 2.95 µM in the assay with BT-549 breast; 1.1 µM with DU-145 prostate; 14.2 µM in the assay with HS 578T breast; 1.13 µM in the assay on MCF7 breast; 5.23 µM in the assay with T-47D breast. The TGI with BT-549 breast is 7.54 µM; in the assay with DU-145 prostate, 4.03 µM; in the assay with HS 578T breast it was greater than 25 µM; with MCF7 breast it was 10.3 µM; in the assay with T-47D breast it was greater than 25 µM.

As to `CN(C)c1ccc2cc(-c3ccccc3F)c(N)nc2c1`, the GI50 was 2.57 µM in the assay on BT-549 breast; 3.09 µM in the assay on DU-145 prostate; 2.83 µM with HS 578T breast; 0.431 µM in the assay on MCF7 breast; 1.26 µM in the assay on T-47D breast. For the same compound, the TGI was found to be 10.6 µM in the assay with BT-549 breast; 13.2 µM with DU-145 prostate; 18.5 µM in the assay on HS 578T breast; 14.4 µM with MCF7 breast; 13.6 µM in the assay on T-47D breast.

As to `N#C/C(=C\c1cccc(O)c1)C(N)=O`, the TGI in the assay with DLD-1 colon, in the assay with DMS 114 small cell lung, with KM20L2 colon, with SNB-78 CNS and in the assay on XF 498 CNS was greater than 100 µM each time.

Turning to `Cn1nc(-c2ccccc2)c(C(=O)/C=C/c2ccccc2)c(N2CCOCC2)c1=O`, the TGI with DLD-1 colon was greater than 100 µM; in the assay with DMS 114 small cell lung it was 38.2 µM; with HOP-18 NSCLC, 89.7 µM; with KM20L2 colon, 42.9 µM; in the assay on XF 498 CNS, 30.7 µM.

The values above are taken from PubChem BioAssay (NCI).
